Assay results from patent publication US20180055915A1, “COMPOSITIONS AND METHODS FOR TREATING PROSTATE CANCER” (UNIVERSITY OF ROCHESTER, priority 2016, published 2018).
Residues, ends and D or L forms follow the SMILES beside them. *: point of attachment. Cbz = O=C(OCc1ccccc1)*

Assays:
[1] = test system: wild type AR, ARv7, AR-F876L; conditions: cited from earlier work
[2] = CRPC patients; cited from earlier work
EnzR1-C4-2 cells = assay: MTT cell proliferation assay, EnzR1-C4-2; format: cell-based
Description: (§1) Cells were seeded in 24-well plates (5×10^3 cells/500 μL media per well) and cultured for 0, 2, 4 and 6 days. Cells were harvested and cell numbers and absorbance were calculated and recorded after using yellow tetrazolium MTT (3-(4, 5-dimethylthiazolyl-2)-2,5-diphenyltetrazolium bromide agent.

ARv7 mRNA = ARv7 mRNA expression (real-time PCR); format: cell-based
Description: (§2) Total RNAs were isolated using Trizol reagent (Invitrogen, Grand Island, N.Y.). 2 μg of total RNA was subjected to reverse transcription using Superscript III transcriptase (Invitrogen). Quantitative real-time PCR (qRT-PCR) was conducted using a Bio-Rad CFX96 system with SYBR green to determine the mRNA expression level of a gene of interest. Expression levels were normalized to the expression of GAPDH.

Enz-S1-C4-2 cells = assay: Enz sensitivity after 2 months treatment (MTT proliferation); format: cell-based
Description: as §1

ARv7 = biological target: T1, ARv7 (Homo sapiens, UniProt P10275); assay: ARv7 protein expression/degradation in CRPC cells (western blot); format: cell-based
T1 construct: endogenous in cells; host or cells: EnzR1 C4-2, EnzR3 C4-2B, EnzR2 CWR22Rv1
T1 sequence (P10275 1-644 isoform P10275-3): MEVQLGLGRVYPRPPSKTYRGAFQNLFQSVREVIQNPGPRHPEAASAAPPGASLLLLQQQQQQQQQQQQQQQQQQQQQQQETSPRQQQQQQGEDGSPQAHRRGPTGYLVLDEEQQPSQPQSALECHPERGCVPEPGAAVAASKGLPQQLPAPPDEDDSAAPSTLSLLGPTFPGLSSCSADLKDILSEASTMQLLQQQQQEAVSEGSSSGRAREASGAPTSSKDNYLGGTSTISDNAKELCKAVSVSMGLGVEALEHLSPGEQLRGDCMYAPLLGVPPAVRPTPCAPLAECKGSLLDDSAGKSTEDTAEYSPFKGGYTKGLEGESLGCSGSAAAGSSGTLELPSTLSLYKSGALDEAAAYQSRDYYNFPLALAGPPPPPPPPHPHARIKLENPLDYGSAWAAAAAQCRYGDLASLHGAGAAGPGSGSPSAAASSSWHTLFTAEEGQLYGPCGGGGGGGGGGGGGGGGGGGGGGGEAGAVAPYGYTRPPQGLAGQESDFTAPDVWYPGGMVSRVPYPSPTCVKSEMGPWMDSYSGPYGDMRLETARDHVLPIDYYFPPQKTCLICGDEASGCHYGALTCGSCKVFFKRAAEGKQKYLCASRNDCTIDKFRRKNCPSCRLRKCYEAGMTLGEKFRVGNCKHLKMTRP
Description: (§3) To further dissect the mechanism(s) why Cis can decrease ARv7 (and AR) protein expression, first assayed was the Cis effects on ARv7 (and AR) protein stability with protein biosynthesis inhibitor, cycloheximide (CHX) and proteasome inhibitor MG132 in EnzR2-CWR22Rv1 cells.
(§4) For protein degradation, EnzR C4-2 cells were treated with 1 μg/mL Cisplatin for 6 hr. Cycloheximide or MG132 was added for another 4 hrs. For ubiquitination, human kidney epithelial HEK293T cells were grown in DMEM media with 10% FCS. Cells were plated at ˜60% confluency and pGFP-ubiquitin, pAR were transiently transfected into cells using CaCl2 reagent. After 48 hrs. of transfection, cells were treated with 1 μg/mL Cisplatin for 6 hrs. […], MG132, was added for another 4 hrs. Cell extracts were analyzed for AR degradation or AR-ubiquitination by using western blot.
(§5) Cells were lysed in lysis buffer and proteins (50 μg) were separated on 10% SDS/PAGE gel and then transferred onto PVDF membranes (Millipore, Billerica, Mass.). After blocking membranes with 5% milk, they were incubated with appropriate dilutions of specific primary antibodies (anti-AR (N-20), anti-SF2, anti-GFP, anti-GAPDH, anti-a-tubulin). The blots were incubated with HRP-conjugated secondary antibodies and visualized using ECL system (Thermo Fisher Scientific, Rochester, N.Y.).

PCa cell = conditions: in vitro and in vivo; cited from earlier work
EnzR3-C4-2B cells = assay: MTT cell proliferation assay, EnzR3-C4-2B; format: cell-based; conditions: FIG. 2H
Description: as §1

Malat1 = Malat1 mRNA expression (real-time PCR); format: cell-based; conditions: EnzR1-C4-2 cells, FIG. 4F
Description: as §2

[3] = test system: glucocorticoid receptor (GR); assay: Glucocorticoid receptor expression; format: cell-based
cPARP = assay: Cell apoptosis by cPARP level; format: cell-based
lncRNA RP11-473I1.9 = lncRNA RP11-473I1.9 expression (real-time PCR); format: cell-based; conditions: FIG. 4G
Description: as §2

EnzR2-CWR22Rv1 cells [4] = assay: Orthotopic EnzR xenograft in castrated nude mice; format: in vivo
AR promoter = AR promoter luciferase assay (pAR-luc) in EnzR2-CWR22Rv1 cells; format: cell-based; conditions: 1 ug/mL Cis, FIG. 5B
Source text: In addition to function via altering the AR-ubiquitination to decrease ARv7 (and AR) protein expression and modulating the Malat1/SF2 RNA splicing complex to decrease ARv7 mRNA biosynthesis/expression, it is interesting to see the potential 3rd molecular mechanism at transcriptional regulation to alter the AR expression for Cis to decrease ARv7 mRNA expression. […] A 3.6 kb AR promoter was then constructed into pGL3 luciferase vector (pAR-luc) and transfected pAR-luc into EnzR2-CWR22Rv1 cells for luciferase assay.

[5] = test system: estrogen receptor b (ERb); assay: Estrogen receptor b expression; format: cell-based
AR-ubiquitin complex = assay: AR-ubiquitination immunoprecipitation in 293T cells; format: cell-based, human; conditions: 293T cells with AR and ubiquitin-GPF, FIG. 4D
Description: Then examined was whether ubiquitination involves in ARv7 (and AR) degradation. First added were AR and ubiquitin-GPF in 293T cells, and then applied the immunoprecipitation assay to examine Cis effect on AR-ubiquitination.
as §4

AR mutant AR876 = biological target: T2, AR mutant AR876 (Homo sapiens, UniProt P10275, F877L); assay: AR876 expression in PC3 cells stably transfected with AR876-cDNA; format: cell-based; conditions: FIG. 1G
T2 construct: expressed in transfected cells; host or cells: PC3
T2 sequence (P10275 1-920 F877L): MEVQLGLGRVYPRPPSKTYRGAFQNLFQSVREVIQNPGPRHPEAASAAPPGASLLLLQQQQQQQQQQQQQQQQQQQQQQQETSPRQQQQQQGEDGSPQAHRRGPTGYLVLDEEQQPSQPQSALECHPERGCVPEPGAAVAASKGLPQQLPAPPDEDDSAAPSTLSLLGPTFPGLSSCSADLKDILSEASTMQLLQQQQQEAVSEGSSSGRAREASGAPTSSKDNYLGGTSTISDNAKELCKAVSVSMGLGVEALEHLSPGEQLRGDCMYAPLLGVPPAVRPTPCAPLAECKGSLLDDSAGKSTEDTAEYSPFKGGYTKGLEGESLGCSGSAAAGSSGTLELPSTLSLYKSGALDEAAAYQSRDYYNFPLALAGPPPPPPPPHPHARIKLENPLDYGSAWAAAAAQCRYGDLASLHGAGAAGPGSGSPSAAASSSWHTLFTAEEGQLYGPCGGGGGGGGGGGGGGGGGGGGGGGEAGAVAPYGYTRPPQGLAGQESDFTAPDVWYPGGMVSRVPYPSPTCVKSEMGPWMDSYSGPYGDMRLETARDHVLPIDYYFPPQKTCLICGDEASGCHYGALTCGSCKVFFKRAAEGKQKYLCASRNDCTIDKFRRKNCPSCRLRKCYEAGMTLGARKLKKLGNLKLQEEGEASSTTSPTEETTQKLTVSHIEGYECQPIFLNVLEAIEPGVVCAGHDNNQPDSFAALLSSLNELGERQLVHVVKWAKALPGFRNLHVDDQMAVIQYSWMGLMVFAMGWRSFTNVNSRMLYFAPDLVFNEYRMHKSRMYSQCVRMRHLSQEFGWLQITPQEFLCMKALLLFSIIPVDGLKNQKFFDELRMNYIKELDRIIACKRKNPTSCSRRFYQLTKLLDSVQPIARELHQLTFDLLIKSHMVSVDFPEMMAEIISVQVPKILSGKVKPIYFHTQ
Description: as §5

EnzR2-CWR22Rv1 cells [6] = assay: MTT cell proliferation assay, EnzR2-CWR22Rv1; format: cell-based; conditions: FIG. 2E
Description: as §1

AR mRNA = AR mRNA expression (real-time PCR); format: cell-based; conditions: FIG. 5A
Description: as §2

SF2 = SF2 protein level; format: cell-based
Description: as §5

AR = AR protein expression/degradation in CRPC cells (western blot); format: cell-based
Description: as §3, §4, §5

[7] = EnzR3-C4-2 cells, Cis at 1 ug/mL, FIG. 2J
[8] = EnzS1-C4-2 cells, Cis at 1-2 ug/mL, FIG. 2I
[9] = EnzR2-CWR22Rv1 cells, after 6 hrs treatment, FIG. 4A

Sequence of SF2 (Q07955 whole entry): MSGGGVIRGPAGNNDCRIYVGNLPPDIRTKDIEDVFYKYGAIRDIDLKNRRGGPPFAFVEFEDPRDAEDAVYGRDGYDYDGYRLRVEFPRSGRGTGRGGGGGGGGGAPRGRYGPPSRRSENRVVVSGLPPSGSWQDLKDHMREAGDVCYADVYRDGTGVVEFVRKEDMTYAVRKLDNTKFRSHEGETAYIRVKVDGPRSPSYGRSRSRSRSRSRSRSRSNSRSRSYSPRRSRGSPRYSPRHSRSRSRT

COc1ccc(/C=C/C(=O)/C=C(O)/C=C/c2ccc(OC)c(OC)c2)cc1OC [ASC-J9®]
degradation of wild type AR, ARv7 and AR mutants including AR-F876L [1]: could degrade both wild type AR and the AR variant ARv7 or AR mutants including AR-F876L

CC(O)(CS(=O)(=O)c1ccc(F)cc1)C(=O)Nc1ccc(C#N)c(C(F)(F)F)c1 (stereo not shown) [Casodex]
degradation of wild type AR, ARv7 and AR mutants including AR-F876L [1]: not

CNC(=O)c1ccc(N2C(=S)N(c3ccc(C#N)c(C(F)(F)F)c3)C(=O)C2(C)C)cc1F [Enz, 4-(3-(4-Cyano-3-(trifluoromethyl)phenyl)-5,5-dimethyl-4-oxo-2-thioxoimidazolidin-1-yl)-2-fluoro-N-methylbenzamide]
extension of overall survival (average) [2]: 4.8 months
suppression of cell growth (EnzR1-C4-2 cells; 20 uM Enz alone, FIG. 2A): little effect
ARv7 mRNA expression (ARv7 mRNA; Enz-S1-C4-2 cells, Enz treatment, FIG. 3D): led to increase ARv7 mRNA expression
Enz sensitivity (Enz-S1-C4-2 cells; Enz-S1-C4-2 cells before long-term treatment, FIG. 3A): 54%
Enz sensitivity (Enz-S1-C4-2 cells; after 10 uM Enz alone for 2 months, FIG. 3B): 38%

CC(C)C[C@@H](C=O)NC(=O)[C@H](CC(C)C)NC(=O)[C@H](CC(C)C)NC(=O)OCc1ccccc1 [MG132] (Cbz-Leu-Leu-Leu-aldehyde)
effect on Cis-induced ARv7 (and AR) degradation (ARv7; MG132 with Cis 6 hrs, FIG. 4B): attenuate/inhibit the effect of Cis on ARv7 (and AR) degradation

O=C(Nc1ccc([N+](=O)[O-])cc1Cl)c1cc(Cl)ccc1O [niclosamide]
PCa cell growth (PCa cell): suppress the PCa cell growth in vitro and in vivo

(SP-4-2)-diamminedichloroplatinum(II) [Cis]
IC50 (cell growth) (EnzR3-C4-2B cells): 3.3 µg/mL
IC50 (EnzR3-C4-2B cells; read-out: IC50 (cell growth)): 10.9 µM
Malat1 mRNA expression (Malat1): decreased in dose-dependent manner
GR expression [3]: little effect to decrease
cell apoptosis (cPARP) (cPARP; [7]): little change in cPARP
cell apoptosis (cPARP) (cPARP; [8]): little change in cPARP
lncRNA RP11-473I1.9 expression (lncRNA RP11-473I1.9): little effect
tumor progression (EnzR2-CWR22Rv1 cells [4]; Enz 3.5 mg/kg every other day i.p. with vs without Cis 3.5 mg/kg weekly i.v., 3 weeks): can increase/restore the Enz sensitivity to further suppress the EnzR3-C4-2B tumor progression
tumor expression of ARv7 (and AR), Malat1 and SF2 (immunohistochemistry) (EnzR2-CWR22Rv1 cells [4]; tumor received Cis+Enz): lower expression of ARv7 (and AR), as well as Malat1 and SF2
ARv7 (and AR877) degradation (ARv7; CWR22Rv1 cells, Cis plus CHX compared to CHX alone, FIG. 4C): can facilitate ARv7 (and AR877) degradation
ARv7 expression (ARv7; EnzR1-C4-2 cells, increasing Cis, FIG. 1B): diminishing ARv7 was detected upon increasing Cis
ARv7 protein degradation (ARv7; [9]): could degrade ARv7 (and AR)
AR promoter activity (pAR-luc luciferase) (AR promoter): can also decrease AR mRNA expression at transcriptional level via altering AR promoter activity
ERb expression [5]: little effect to decrease
AR-ubiquitin complex (AR-ubiquitin complex): may increase the AR-ubiquitin complex
suppression of cell growth (EnzR1-C4-2 cells; 20 uM Enz combined with 2 ug/mL (6.6 uM) Cis, FIG. 2B): could suppress EnzR1-C4-2 cell growth
IC50 (cell growth) (EnzR1-C4-2 cells; Cis combined with 20 uM Enz, FIG. 2C): ~5 µg/mL
IC50 (EnzR1-C4-2 cells; Cis combined with 20 uM Enz, FIG. 2C, read-out: IC50 (cell growth)): ~16.5 µM
AR876 expression (AR mutant AR876): can also decrease
ARv7 mRNA expression (ARv7 mRNA; Enz-S1-C4-2 cells, Enz plus Cis (0.2 ug/mL), FIG. 3D): suppressed the Enz-increased ARv7 significantly
ARv7 mRNA expression (ARv7 mRNA; EnzR1-C4-2 cells, FIG. 4E): decreased in dose-dependent manner
IC50 (cell growth) (EnzR2-CWR22Rv1 cells [6]): 5 µg/mL
IC50 (EnzR2-CWR22Rv1 cells [6]; read-out: IC50 (cell growth)): 16.5 µM
AR mRNA (AR mRNA): could also decrease AR mRNA in a dose-dependent manner
Enz sensitivity (Enz-S1-C4-2 cells; after 10 uM Enz plus 0.2 ug/mL (0.66 uM) Cis for 2 months, FIG. 3C): 62%
SF2 protein expression (SF2): may decrease SF2 protein expression in a dose-dependent manner
AR expression (AR; EnzR1-C4-2 cells, FIG. 1B): could suppress the AR
AR protein degradation (AR; [9]): could degrade ARv7 (and AR)
AR degradation (AR; [7]): may degrade AR
AR degradation (AR; [8]): could degrade AR
AR expression (AR; EnzS1-C4-2 cells, FIG. 1A): could suppress the AR
